Data published in patent publication US7906684B2, “Antioxidants” (Merck Patent Gesellschaft Mit Beschrankter Haftung, priority 2006, dated 2011).

What was measured:
[1] = Photoconversion test, substance on roughened Perspex plates, sun simulation; type: physicochemical; details: 0.75 mg/cm^−2 on roughened Perspex plates, FIG. 1
Protocol: The substance is applied to roughened Perspex plates (0.75 mg/cm^−2) and irradiated under sun simulation. The dose is to be understood as the absolute, unweighted total UV irradiation dose. After each irradiation step, the UV absorption of the sample is measured against placebo (placebo=Perspex plate with glycerol).

[2] = TEAC assay (trolox equivalent antioxidant capacity), Bünger et al. method; details: according to the Bünger et al. method
Description: (§1) A detailed description, besides the […] just described, for the lipid assay (or 2,2′-azobis(2-aminopropane)=ABAP assay) or the TEAC assay (TEAC=trolox equivalent antioxidant capacity) is also found in Bünger et al, International Journal of Cosmetic Science, 2006, 28, 135-146.

[3] = lipid assay (2,2'-azobis(2-aminopropane) = ABAP assay), Bünger et al. method; details: according to the Bünger et al. method
Description: as §1

[4] = Photoconversion test, 4% solution in isopropyl myristate on Perspex support, simulated solar irradiation; type: physicochemical; details: 2 μlcm^−2 on rough Perspex, Suntester 1 h 50 min, extracted with isopropanol, made up to 50 ml
Protocol: A 4% solution of the substance in isopropyl myristate is applied at a rate of 2 μlcm^−2 to a rough Perspex support. The sample is subjected to simulated solar irradiation in a Suntester for 1 h 50 min. After irradiation, the sample is extracted with 40 ml of isopropanol and made up to a precise volume of 50 ml. Compared with an unirradiated sample, an increase in absorbance at the substance maximum at 285 nm of 0.77 absorption units arises.

Row | increase in absorbance at the substance maximum at 285 nm compared with an unirradiated sample [4] [absorption units] | SMILES | UV absorption of the sample after irradiation, measured against placebo [1] | TEAC assay [2] [%] | lipid assay [3] [%]
1 | – | COc1ccc(C(O)c2ccccc2)c(O)c1 (stereo not shown) [Compound (5), 2-(hydroxyphenylmethyl)-5-methoxyphenol] | increases in absorption power due to irradiation | 50 | 8
2 | 0.77 | COc1ccc(C(O)c2ccccc2)cc1 (stereo not shown) [Compound (9), (4-methoxyphenyl)phenylmethanol] | – | – | –
